The NIST ThermoML archive (doi:10.1016/j.fluid.2016.05.004)
± gives the expanded uncertainty stated by the source.

Details: Liquid, Closed cell (Static) method

Row | vapor or sublimation pressure (233.19 K) [kPa] | vapor or sublimation pressure (243.22 K) [kPa] | vapor or sublimation pressure (253.21 K) [kPa] | vapor or sublimation pressure (263.21 K) [kPa] | Compound | vapor or sublimation pressure (233.17 K) [kPa] | vapor or sublimation pressure (243.23 K) [kPa] | vapor or sublimation pressure (253.14 K) [kPa] | vapor or sublimation pressure (263.2 K) [kPa] | vapor or sublimation pressure (273.19 K) [kPa] | vapor or sublimation pressure (243.24 K) [kPa] | vapor or sublimation pressure (253.22 K) [kPa] | vapor or sublimation pressure (263.24 K) [kPa] | vapor or sublimation pressure (273.18 K) [kPa]
1 |  |  |  |  | FC(F)=C(F)C(F)(F)F [hexafluoropropene] | 64 ± 10 | 102 ± 10 | 157 ± 10 | 233 ± 10 | 334 ± 10 |  |  |  | 
2 |  |  |  |  | FC(F)(F)C1(F)OC1(F)F (stereo not given) [2,2,3-trifluoro-3-(trifluoromethyl)oxirane] | 58 ± 10 |  |  |  |  | 95 ± 10 | 145 ± 10 | 216 ± 10 | 310 ± 10
3 | 1009 ± 12 | 1432 ± 12 | 1970 ± 13 | 2645 ± 15 | O=C=O [carbon dioxide] |  |  |  |  | 3473 ± 16 |  |  |  | 
